US8551721B2, “Bioluminescent detection of cyanohydroxy benzothiazole compounds” (Promega Corporation, priority 2008, dated 2013)

Assays:
Type in all cases: biochemical
Conditions in all cases: 2 hour incubation at 37° C., plus vs minus UDPGA
UGT 1A6 = target: T1, UGT 1A6 (Homo sapiens, UniProt P19224); experiment: UGT activity: utilization of substrate by recombinant UGT 1A6 Supersomes
T1 construct: purchased BD Gentest; host or cells: insect cells (microsomes)
T1 sequence (P19224 27-532): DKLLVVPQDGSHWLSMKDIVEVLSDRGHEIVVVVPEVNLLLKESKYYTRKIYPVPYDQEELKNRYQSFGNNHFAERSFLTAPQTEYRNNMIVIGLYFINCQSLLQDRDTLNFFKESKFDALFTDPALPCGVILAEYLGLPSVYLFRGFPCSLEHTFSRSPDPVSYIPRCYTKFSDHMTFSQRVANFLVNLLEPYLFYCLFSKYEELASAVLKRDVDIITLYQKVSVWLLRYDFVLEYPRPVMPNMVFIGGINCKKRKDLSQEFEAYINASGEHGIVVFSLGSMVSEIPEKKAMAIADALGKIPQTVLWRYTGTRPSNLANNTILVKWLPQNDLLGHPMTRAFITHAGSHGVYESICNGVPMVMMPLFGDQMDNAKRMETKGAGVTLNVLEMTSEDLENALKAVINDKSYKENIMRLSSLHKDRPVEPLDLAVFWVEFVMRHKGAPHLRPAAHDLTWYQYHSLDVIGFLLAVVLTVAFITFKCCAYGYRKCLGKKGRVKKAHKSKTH
Procedure: (§1) The invention includes a method of determining activity of the uridine 5′-diphospho-glucuronosyltransferase (UDP-glucuronosyltransferase, or UGT) family enzymes in vitro. Briefly, UGT enzymes from overexpressed insect microsomes (Supersomes™, BD Gentest™) or animal tissue microsomes (Xenotech, BD Gentest™) were incubated with a cyanobenzothiazole substrate of the invention and the cofactor UDP-glucuronic acid (UDPGA) at 37° C. in buffer at physiological pH containing MgCl2 and alamethicin (typically, 50 mM TES, pH 7.5, 8 mM MgCl2, 4 mM UDPGA (Sigma) and 25 μg/mL alamethicin (Sigma)). Following the UGT enzyme reaction, an equal volume of P450-Glo Luciferin Detection Reagent (Promega) containing 15-30 mM D-cysteine-HCl.H2O (Sigma) was added and the plate was mixed and incubated at room temperature, typically for 20-30 minutes. […]
(§2) During this incubation, the cysteine reacts with the cyanobenzathiozole substrate to yield a D-luciferin derivative. […] Therefore, activity of the UGT enzyme can be measured by analyzing the difference (lower or no output) in relative light units (RLU) of a sample in which glucuronidation occurs compared to a sample that was run under the same conditions with no added UDPGA cofactor. […]
(§3) Reactions were assembled in a white 96-well plate. […] After the incubation was completed, the plate was read on a Veritas™ luminometer (Turner BioSystems, Inc.; Sunnyvale, Calif.). […]

UGT 2B17 = target: T2, UGT 2B17 (Homo sapiens, UniProt O75795); experiment: UGT activity: utilization of substrate by recombinant UGT 2B17 Supersomes
T2 construct: purchased BD Gentest; host or cells: insect cells (microsomes)
T2 sequence (O75795 24-530): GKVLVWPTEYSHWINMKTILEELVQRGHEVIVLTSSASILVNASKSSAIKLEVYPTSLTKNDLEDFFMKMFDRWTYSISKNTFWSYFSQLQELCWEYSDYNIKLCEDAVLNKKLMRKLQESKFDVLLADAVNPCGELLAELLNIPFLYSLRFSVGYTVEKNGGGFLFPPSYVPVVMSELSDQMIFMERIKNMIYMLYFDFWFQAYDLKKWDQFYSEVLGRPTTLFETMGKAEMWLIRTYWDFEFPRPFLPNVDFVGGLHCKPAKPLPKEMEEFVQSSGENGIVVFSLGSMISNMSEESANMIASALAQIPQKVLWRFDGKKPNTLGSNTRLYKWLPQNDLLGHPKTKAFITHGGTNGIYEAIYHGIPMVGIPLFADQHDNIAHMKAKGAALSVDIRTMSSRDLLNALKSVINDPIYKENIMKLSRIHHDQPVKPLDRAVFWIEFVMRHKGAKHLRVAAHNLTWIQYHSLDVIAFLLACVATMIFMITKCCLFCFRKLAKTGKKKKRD
Procedure: as §1, §2, §3

UGT 2B4 = target: T3, UGT 2B4 (Homo sapiens, UniProt P06133); experiment: UGT activity: utilization of substrate by recombinant UGT 2B4 Supersomes
T3 construct: purchased BD Gentest; host or cells: insect cells (microsomes)
T3 sequence (P06133 24-528): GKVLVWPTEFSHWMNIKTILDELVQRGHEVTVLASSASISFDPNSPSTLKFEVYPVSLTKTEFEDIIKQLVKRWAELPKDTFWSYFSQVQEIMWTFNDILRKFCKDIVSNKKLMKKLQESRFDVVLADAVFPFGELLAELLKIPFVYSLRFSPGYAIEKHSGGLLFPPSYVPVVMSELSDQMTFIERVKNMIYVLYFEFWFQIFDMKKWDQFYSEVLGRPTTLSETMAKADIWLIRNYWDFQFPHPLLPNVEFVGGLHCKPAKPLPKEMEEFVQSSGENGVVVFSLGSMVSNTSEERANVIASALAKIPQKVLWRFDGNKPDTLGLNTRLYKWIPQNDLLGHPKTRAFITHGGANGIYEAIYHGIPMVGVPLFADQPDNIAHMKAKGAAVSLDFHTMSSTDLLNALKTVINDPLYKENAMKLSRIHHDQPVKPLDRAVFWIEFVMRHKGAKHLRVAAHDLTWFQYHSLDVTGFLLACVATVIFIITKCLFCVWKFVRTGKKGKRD
Procedure: as §1, §2, §3

Row | Compound | utilization by UGT 1A6 (in words) (UGT 1A6) | utilization by UGT 2B17 (in words) (UGT 2B17) | utilization by UGT 2B4 (in words) (UGT 2B4)
1 | Cc1cc(O)cc2sc(C3=NC(C(=O)O)CS3)nc12 (stereo not drawn) [compound 3478] | only UGT 1A6 was able to utilize compound 3478 to any appreciable extent | only UGT 1A6 was able to utilize compound 3478 to any appreciable extent | did not utilize either compound 3138 or 3478 to an appreciable extent
2 | Cc1cc(O)cc2sc(C#N)nc12 [compound 3138] | detectable levels of utilization above background | detectable levels of utilization above background | did not utilize either compound 3138 or 3478 to an appreciable extent
